From PMC10511816 (The Journal of Biological Chemistry, 2023)

Legend:
[1] = molecular target: XDH (Bos taurus, UniProt P80457); assay: initial-velocity steady-state kinetics of XDH, NAD+ as electron acceptor; format: biochemical, bovine; set-up: Bovine milk was obtained from the animal farm of the Nippon Veterinary and Life Science University; from tissue; host or cells: bovine milk; conditions: for Types of inhibition / Ki: XDH; for Types of inhibition: NAD+
Method: (§1) Bovine milk was obtained from the animal farm of the Nippon Veterinary and Life Science University. […] The dehydrogenase form of the enzyme (XDH) was obtained by reacting XO immediately upon purification with 5 mM DTT at pH 8.5, 25 °C for 1 h. XO and XDH assays were carried out at 25 °C under aerobic conditions. […] A total of 500 μM β-NAD^+ was added to the same reaction solution for XDH activity. Physiological conditions such as pH 7.4 (0.1 M potassium phosphate buffer (KPB), 0.2 mM EDTA) and the addition of 50 μM β-NADH were also used. The activity was measured by following 295 nm and 340 nm on a UV-1800 or UV1900i spectrophotometer. […] In addition, the enzyme reaction solution was quenched with perchloric acid and neutralized with K2CO3, with products analyzed using HPLC as described below. Spectrophotometric data were analyzed using UV-Probe software Ver. 2.70 or LabSolutions UV-Vis Ver. […] Kinetic parameters were determined from nonlinear curve fits of raw data using GraphPad Prism 9 software.
(§2) A295 indicates the concentration of uric acid yielded by XOR. […] A295 indicates the concentration of uric acid yielded by XOR. Figure S2. The XOR inhibition mode of oxypurinol.A–G, Lineweaver-Burk plots were generated to visualize data and estimated the inhibition patterns. Data are representative of least two independent experiments. […] Figure S3. […] B, mode of inhibition of oxypurinol on the inosine degradation reaction of PNP. […] 0, 250, 375, 500, 750 and 1000 μM of oxypurinol were used. […] The rate of NAD^+ conversion to NADH was measured at A340 nm.

[2] = molecular target: T1, XO type enzyme (xanthine oxidase) (Bos taurus, UniProt P80457); assay: time-dependent inhibition of uric acid production from xanthine by XO (A295); format: biochemical, bovine; conditions: for 50% inhibition time of uric acid production / stop time of uric acid production: pH 8.5, 25 °C
T1 construct: Bovine milk was obtained from the animal farm of the Nippon Veterinary and Life Science University; from tissue; host or cells: bovine milk
Method: A295 indicates the concentration of uric acid yielded by XOR. […] Uric acid production was measured at 295 nm at 25 °C.
as §1

[3] = molecular target: T2, XOR (Bos taurus, UniProt P80457); assay: XOR kinetics with phenazine methosulfate / cytochrome c reduction (550 nm); format: biochemical, bovine; conditions: for Types of inhibition / Ki: XOR; for Types of inhibition: PMS
T2 construct: Bovine milk was obtained from the animal farm of the Nippon Veterinary and Life Science University; from tissue; host or cells: bovine milk
Method: Therefore, phenazine methosulfate was used to induce direct, rapid reoxidation of the molybdenum center ([22], [23]).
as §1, with “used.” for “used. The activity was measured by following 295 nm and 340 nm on a UV-1800 or UV1900i spectrophotometer.”
as §2

[4] = test system: mouse model of hyperuricemia; assay: mouse model of hyperuricemia (potassium oxonate), plasma purines by HPLC; format: in vivo; conditions: for plasma hypoxanthine levels vs control / plasma xanthine levels vs control: 1 h
Method: To compare the inhibitory effect of allopurinol and oxypurinol on uric acid production, mice were treated with oxonate to inhibit uricase and induce hyperuricemia.
Figure 2 Comparison of the effects of allopurinol and oxypurinol in a model of hyperuricemia. […] Statistical analysis was performed using one-way ANOVA and Turkey’s multiple comparison test. ∗p < 0.05, ∗∗p < 0.01, ∗∗∗∗p < 0.0001.
Six-week-old specific-pathogen free-grade male Institute of Cancer Research mice were purchased from Japan SLC. All animal experiments were performed according to the protocol approved by the Animal Care and Ethics Committee of Tokyo University of Pharmacy and Life Sciences (Permit No. P21-80). Mice were housed under conditions of 22 to 24 °C, 40 to 60% humidity, and a 12-h light/12-h dark cycle. Food and water were administered ad libitum.
Oxypurinol or allopurinol was suspended in 0.5% carboxymethyl cellulose and administered intraperitoneally at 3 mg/kg or 10 mg/kg (n = 11). The control group received 0.5% carboxymethyl cellulose (n = 5). Immediately after intraperitoneal administration, potassium oxonate was injected subcutaneously at 300 mg/kg. One hour after administration, mice were sacrificed by cervical dislocation, and blood was collected with heparin. […] Statistical analysis was performed using GraphPad Prism 9 software (www.graphpad.com).
Purine concentrations were measured using a Shimadzu HPLC system consisting of the CBM-20A controller, LC-20AD pump, SIL-20AC autosampler (set at 4 °C), CTO-20A column oven (set at 40 °C), and SPD-M20A diode array detector. Peak analysis was performed using LC solution software. A SUPELCOSIL LC-18-T column (25 cm × 4.6 mm id 5 μm particle size) was used with the SUPELCOSIL LC-18-T Supelguard guard column separation of purines, using a flow rate was 0.8 ml/min and 10 or 20 μl samples. The mobile phase used was A: 0.1 M KPB and 4 mM tetrabutylammonium hydrogen sulfate (pH 5.5), B: 70% buffer A and 30% methanol (v/v). Gradient conditions were 0 min (0% B), 2 min (0% B), 4 min (30% B), 12 min (60% B), 15 min (100% B), 19 min (100% B), 20 min (0% B), and 30 min (0% B). Detection wavelengths were 254 nm, 268 nm, and 295 nm. The data were analyzed using LabSolutions Ver. 5.97 SP1. All purines were identified by retention time and quantified using an external standard.

[5] = as substrate of XDH, electron acceptor NAD+, 340 nm, mean ± S.E.
[6] = xanthine 5 μM, inhibitor 2 μM, XO
[7] = xanthine 10 μM, inhibitor 2 μM, XO
[8] = xanthine 50 μM, inhibitor 2 μM, XO
[9] = xanthine 50 μM, inhibitor 10 μM, XO
[10] = xanthine 50 μM, inhibitor 50 μM, XO
[11] = as substrate of XOR, electron acceptor PMS, mean ± S.E.
[12] = 3 mg/kg intraperitoneal, 1 h after administration, oxonate-treated mice
[13] = one hour after 3 mg/kg allopurinol intraperitoneal
[14] = xanthine 2 μM, inhibitor 2 μM, XO
[15] = xanthine 2 μM, inhibitor 10 μM, XO
[16] = xanthine 5 μM, inhibitor 10 μM, XO

T1 sequence (P80457 whole entry): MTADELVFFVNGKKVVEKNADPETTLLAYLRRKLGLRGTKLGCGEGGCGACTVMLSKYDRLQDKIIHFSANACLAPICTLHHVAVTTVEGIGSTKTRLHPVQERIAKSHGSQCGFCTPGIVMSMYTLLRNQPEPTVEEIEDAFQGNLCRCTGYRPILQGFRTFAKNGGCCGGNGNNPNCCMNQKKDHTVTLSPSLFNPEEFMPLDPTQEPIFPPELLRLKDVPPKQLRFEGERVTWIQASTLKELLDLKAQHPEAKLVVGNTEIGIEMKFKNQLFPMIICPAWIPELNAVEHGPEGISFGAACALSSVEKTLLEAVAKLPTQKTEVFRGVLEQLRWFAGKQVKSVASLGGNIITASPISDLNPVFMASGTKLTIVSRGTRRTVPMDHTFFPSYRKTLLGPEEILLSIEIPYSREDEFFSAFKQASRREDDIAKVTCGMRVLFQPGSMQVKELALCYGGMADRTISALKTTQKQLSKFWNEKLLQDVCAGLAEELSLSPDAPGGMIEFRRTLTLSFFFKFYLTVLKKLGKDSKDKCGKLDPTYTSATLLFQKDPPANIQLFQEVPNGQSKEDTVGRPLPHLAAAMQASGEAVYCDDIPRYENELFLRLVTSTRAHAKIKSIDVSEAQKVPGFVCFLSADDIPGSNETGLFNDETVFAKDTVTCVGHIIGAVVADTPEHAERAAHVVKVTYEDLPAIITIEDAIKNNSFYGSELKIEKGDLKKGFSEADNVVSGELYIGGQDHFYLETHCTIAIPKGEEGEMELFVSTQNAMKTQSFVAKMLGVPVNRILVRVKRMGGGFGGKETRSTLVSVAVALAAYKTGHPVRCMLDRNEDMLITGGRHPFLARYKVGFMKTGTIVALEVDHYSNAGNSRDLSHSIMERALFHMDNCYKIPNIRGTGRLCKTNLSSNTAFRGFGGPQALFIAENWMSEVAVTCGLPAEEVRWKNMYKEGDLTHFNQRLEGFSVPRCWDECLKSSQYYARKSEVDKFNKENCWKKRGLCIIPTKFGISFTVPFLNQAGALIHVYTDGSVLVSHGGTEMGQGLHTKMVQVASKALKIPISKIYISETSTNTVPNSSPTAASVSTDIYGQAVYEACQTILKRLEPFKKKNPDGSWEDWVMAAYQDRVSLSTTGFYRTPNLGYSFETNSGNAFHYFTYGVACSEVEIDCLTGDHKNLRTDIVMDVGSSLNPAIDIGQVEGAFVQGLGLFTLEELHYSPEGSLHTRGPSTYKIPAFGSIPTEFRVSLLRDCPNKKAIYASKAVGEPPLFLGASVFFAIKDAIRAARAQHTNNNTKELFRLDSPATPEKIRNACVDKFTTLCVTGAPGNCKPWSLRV
T2 sequence (P80457 whole entry): as above
XDH, sequence (P80457 whole entry): as above

Oc1ncnc2[nH]ncc12 [Allopurinol]
Km [1, 5]: 4.23 ± 0.52 µM
kcat [1, 5]: 1.83 ± 0.92 s⁻¹
effect on uric acid production ([2]; 10 μM or 50 μM inhibitor, 50 μM xanthine, XO): stops uric acid production immediately
50% inhibition time of uric acid production [2, 6]: 1.0 min
stop time of uric acid production [2, 6]: 3.0 min
50% inhibition time of uric acid production [2, 7]: 1.4 min
stop time of uric acid production [2, 7]: 6.9 min
50% inhibition time of uric acid production [2, 8]: 3.8 min
stop time of uric acid production [2, 8]: 14.9 min
50% inhibition time of uric acid production [2, 9]: 1.2 min
stop time of uric acid production [2, 9]: 4.5 min
50% inhibition time of uric acid production [2, 10]: 0.2 min
stop time of uric acid production [2, 10]: 0.7 min
Km [3, 11]: 3.59 ± 0.45 µM
kcat [3, 11]: 26.17 ± 1.96 s⁻¹
plasma hypoxanthine levels vs control ([4]; 3 mg/kg intraperitoneal): significantly increased plasma hypoxanthine levels
plasma xanthine levels vs control ([4]; 3 mg/kg intraperitoneal): xanthine levels were largely unaffected
plasma uric acid levels compared to the control group [4, 12]: significantly decreased plasma uric acid levels
allopurinol in plasma [4, 13]: little allopurinol was detected in the plasma
oxypurinol in plasma [4, 13]: a small amount of oxypurinol was also observed

O=c1[nH]c(=O)c2c[nH]nc2[nH]1 [Oxypurinol]
Types of inhibition ([1]; substrate hypoxanthine, 340 nm): Competitive
Ki ([1]; substrate hypoxanthine, electron acceptor NAD+, 340 nm, mean ± S.E.): 3150 ± 220 nM
Types of inhibition ([1]; substrate xanthine, 295 nm): Competitive
Ki ([1]; substrate xanthine, electron acceptor NAD+, 295 nm, mean ± S.E.): 4600 ± 870 nM
mode of inhibition ([2]; 2 μM xanthine, 0.1 M KPB pH 7.4): strictly competitive
uric acid production in presence of inhibitor ([2]; 2 μM xanthine, 0.1 M KPB pH 7.4, 0 to 400 μM oxypurinol): uric acid production was evident even with 400 μM oxypurinol
50% inhibition time of uric acid production [2, 14]: 9.0 min
stop time of uric acid production [2, 14]: 58.3 min
50% inhibition time of uric acid production [2, 15]: 14.9 min
stop time of uric acid production [2, 15]: 89.0 min
50% inhibition time of uric acid production ([2]; xanthine 2 μM, inhibitor 50 μM, XO): 49.5 min
ratio of 50% inhibition time, oxypurinol (min)/allopurinol (min) ([2]; xanthine 5 μM, inhibitor 2 μM): 10.8
ratio of stop time, oxypurinol (min)/allopurinol (min) ([2]; xanthine 5 μM, inhibitor 2 μM): 25.9
50% inhibition time of uric acid production [2, 6]: 10.8 min
stop time of uric acid production [2, 6]: 77.7 min
50% inhibition time of uric acid production [2, 16]: 20.1 min
stop time of uric acid production [2, 16]: 119.4 min
50% inhibition time of uric acid production ([2]; xanthine 5 μM, inhibitor 50 μM, XO): 38.3 min
ratio of 50% inhibition time, oxypurinol (min)/allopurinol (min) ([2]; xanthine 10 μM, inhibitor 2 μM): 10.9
ratio of stop time, oxypurinol (min)/allopurinol (min) ([2]; xanthine 10 μM, inhibitor 2 μM): 14.7
50% inhibition time of uric acid production [2, 7]: 15.3 min
stop time of uric acid production [2, 7]: 101.4 min
50% inhibition time of uric acid production ([2]; xanthine 10 μM, inhibitor 10 μM, XO): 20.8 min
50% inhibition time of uric acid production ([2]; xanthine 10 μM, inhibitor 50 μM, XO): 19.7 min
ratio of 50% inhibition time, oxypurinol (min)/allopurinol (min) ([2]; xanthine 50 μM, inhibitor 2 μM): 8.6
50% inhibition time of uric acid production [2, 8]: 32.7 min
ratio of 50% inhibition time, oxypurinol (min)/allopurinol (min) ([2]; xanthine 50 μM, inhibitor 10 μM): 10.8
50% inhibition time of uric acid production [2, 9]: 13.0 min
ratio of 50% inhibition time, oxypurinol (min)/allopurinol (min) ([2]; xanthine 50 μM, inhibitor 50 μM): 34.0
50% inhibition time of uric acid production [2, 10]: 6.8 min
Types of inhibition ([3]; substrate hypoxanthine): Competitive
Ki ([3]; substrate hypoxanthine, electron acceptor PMS, mean ± S.E.): 1290 ± 140 nM
Types of inhibition ([3]; substrate xanthine): Competitive
Ki ([3]; substrate xanthine, electron acceptor PMS, mean ± S.E.): 1650 ± 240 nM
plasma hypoxanthine levels vs control ([4]; 3 mg/kg intraperitoneal): neither hypoxanthine nor xanthine concentrations were significantly different from the control group
plasma xanthine levels vs control ([4]; 3 mg/kg intraperitoneal): neither hypoxanthine nor xanthine concentrations were significantly different from the control group
plasma uric acid levels compared to the control group [4, 12]: did not significantly reduce plasma uric acid levels
plasma hypoxanthine levels vs control ([4]; 10 mg/kg intraperitoneal): neither hypoxanthine nor xanthine concentrations were significantly different from the control group
plasma xanthine levels vs control ([4]; 10 mg/kg intraperitoneal): neither hypoxanthine nor xanthine concentrations were significantly different from the control group
plasma uric acid levels ([4]; 10 mg/kg intraperitoneal, 1 h after administration, oxonate-treated mice): reduce plasma uric acid to that seen with 3 mg/kg allopurinol
